Drawing on the supplement of paper PMC10627819, this text covers Bliss interaction score for 16 compounds.

The structures appear in SMILES notation.

Common to all, as to experiment: Bliss interaction score (quartile over a dose matrix) (fitness difference); higher = more antagonism (negative = synergy)
The test system of assay [1] is S. pneumoniae D39V. An outline of the steps:
(§1)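 The Bliss score subtracts expected fitness, the product of the single-drug fitness values, from observed fitness. Fitness is plate-normalised OD595 at entry into stationary phase, relative to the robust no-drug mean and capped at 1, with single-drug fitness inferred from combinations. Summaries are quartiles over technical, biological and donor/recipient replicates.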

Assay [2] concerns S. aureus DSM 20231. In a few lines: as §1
In assay [3] the test system is S. aureus Newman. In a few lines: as §1
Assay [4] relates to B. subtilis 168. In a few lines:
as §1
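Also: first quartile when negative (synergy) and third quartile when positive (antagonism).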

Turning to `Clc1ccc(COC(Cn2ccnc2)c2ccc(Cl)cc2Cl)c(Cl)c1` (centres undefined) [Miconazole] + CCCCCCCCCC(=O)N[C@@H]1[C@H]([C@@H]([C@H](O[C@H]1OC2=C3C=C4C=C2OC5=C(C=C(C=C5)[C@H]([C@H]6C(=O)N[C@@H](C7=C(C(=CC(=C7)O)OC8[C@H]([C@H]([C@@H]([C@H](O8)CO)O)O)O)C9=C(C=CC(=C9)[C@H](C(=O)N6)NC(=O)[C@@H]4NC(=O)[C@@H]1C2=CC(=CC(=C2)OC2=C(C=CC(=C2)[C@H](C(=O)N[C@H](CC2=CC(=C(O3)C=C2)Cl)C(=O)N1)N)O)O)O)C(=O)O)O[C@H]1[C@@H]([C@H]([C@@H]([C@H](O1)CO)O)O)NC(=O)C)Cl)CO)O)O [Teicoplanin], the Bliss interaction score is 0.115 in assay [1] (main component drawn), -0.0409 in assay [2] (main component drawn), -0.0558 in assay [3] (main component drawn) and 0.117 in assay [4] (main component drawn).

Consider `O=C(O)[C@H]1/C(=C/CO)O[C@@H]2CC(=O)N21` [Clavulanic] + Clc1ccc(COC(Cn2ccnc2)c2ccc(Cl)cc2Cl)c(Cl)c1 [Miconazole], for which the Bliss interaction score in assay [1] is 0.0698; in assay [2] it was 0.101; in assay [3], -0.0736; in assay [4] it was 0.0639.

Consider `O=C(O)[C@H]1/C(=C/CO)O[C@@H]2CC(=O)N21` [Clavulanic] + CC(=O)NC[C@H]1CN(c2ccc(N3CCOCC3)c(F)c2)C(=O)O1 [Linezolid], for which the Bliss interaction score in assay [1] was -0.1; in assay [2] it was -0.196; in assay [3], 0.242; in assay [4], 0.0747.

Turning to `CC1=C(C(=O)O)N2C(=O)[C@@H](NC(=O)[C@H](N)c3ccccc3)[C@H]2SC1` [Cephalexin] + CC[C@H]1OC(=O)[C@H](C)[C@@H](O[C@H]2C[C@@](C)(OC)[C@@H](O)[C@H](C)O2)[C@H](C)[C@@H](O[C@@H]2O[C@H](C)C[C@H](N(C)C)[C@H]2O)[C@](C)(OC)C[C@@H](C)C(=O)[C@H](C)[C@@H](O)[C@]1(C)O [Clarithromycin], the Bliss interaction score in assay [1] stood at 0.0361; in assay [2], 0.0663; in assay [3], 0.0874; in assay [4] it was 0.0576.

`CC[C@H]1OC(=O)[C@H](C)C(=O)[C@H](C)[C@@H](O[C@@H]2O[C@H](C)C[C@H](N(C)C)[C@H]2O)[C@](C)(OC)C[C@@H](C)C(=O)[C@H](C)[C@H]2N(CCCCn3cnc(-c4cccnc4)c3)C(=O)O[C@]12C` [Telithromycin] + Oc1cc(Cl)ccc1Oc1ccc(Cl)cc1Cl [Triclosan]: the Bliss interaction score in assay [1] is 0.0532; in assay [2] it was -0.0253; in assay [3], 0.0266; in assay [4], 0.017.

For the compound `O=C(O)[C@H]1/C(=C/CO)O[C@@H]2CC(=O)N21` [Clavulanic] + COc1ccc(C[C@H](N)C(=O)N[C@H]2[C@@H](O)[C@H](n3cnc4c(N(C)C)ncnc43)O[C@@H]2CO)cc1 [Puromycin], the Bliss interaction score was 0.0764 in assay [1], 0.0964 in assay [2], -0.0706 in assay [3] and 0.0481 in assay [4].

Take `Clc1ccc(COC(Cn2ccnc2)c2ccc(Cl)cc2Cl)c(Cl)c1` (centres undefined) [Miconazole] + CO[C@@H]1[C@@H](OC(N)=O)[C@@H](O)[C@H](Oc2ccc3c(O)c(NC(=O)c4ccc(O)c(CC=C(C)C)c4)c(=O)oc3c2C)OC1(C)C [Novobiocin]: the Bliss interaction score came out at 0.121 in assay [1], 0.0483 in assay [2], 0.0415 in assay [3] and 0.0735 in assay [4].

Consider `Clc1ccc(COC(Cn2ccnc2)c2ccc(Cl)cc2Cl)c(Cl)c1` (centres undefined) [Miconazole] + CC[C@H]1OC(=O)[C@H](C)C(=O)[C@H](C)[C@@H](O[C@@H]2O[C@H](C)C[C@H](N(C)C)[C@H]2O)[C@](C)(OC)C[C@@H](C)C(=O)[C@H](C)[C@H]2N(CCCCn3cnc(-c4cccnc4)c3)C(=O)O[C@]12C [Telithromycin], for which the Bliss interaction score is 0.104 in assay [1], 0.04 in assay [2], 0.0508 in assay [3] and 0.0586 in assay [4].

Turning to `CC[C@H]1OC(=O)[C@H](C)[C@@H](O[C@H]2C[C@@](C)(OC)[C@@H](O)[C@H](C)O2)[C@H](C)[C@@H](O[C@@H]2O[C@H](C)C[C@H](N(C)C)[C@H]2O)[C@](C)(O)C[C@@H](C)CN(C)[C@H](C)[C@@H](O)[C@]1(C)O` [Azithromycin] + CC(=O)O[C@H]1C[C@@]2(C)[C@@H](C[C@@H](O)[C@H]3[C@@]4(C)CC[C@@H](O)[C@@H](C)[C@@H]4CC[C@@]32C)/C1=C(\CCC=C(C)C)C(=O)O [Fusidic acid], the Bliss interaction score in assay [1] is -0.0761; in assay [2], -0.0342; in assay [3], 0.0362; in assay [4], -0.119.

As to `CC1=C(C(=O)O)N2C(=O)[C@@H](NC(=O)[C@H](N)c3ccccc3)[C@H]2SC1` [Cephalexin] + N[C@@H]1CONC1=O [CycloserineD], the Bliss interaction score in assay [1] is -0.117; in assay [2], 0.0763; in assay [3] it was -0.0487; in assay [4], -0.0367.

As to `CNC(C)C1CCC(N)C(OC2C(N)CC(N)C(OC3OCC(C)(O)C(NC)C3O)C2O)O1` (centres undefined) [Gentamicin] + Oc1cc(Cl)ccc1Oc1ccc(Cl)cc1Cl [Triclosan], the Bliss interaction score is 0.0731 in assay [1] (main component drawn), -0.0821 in assay [2] (main component drawn), 0.0182 in assay [3] (main component drawn) and -0.17 in assay [4] (main component drawn).

For the compound `O=C(O)[C@H]1/C(=C/CO)O[C@@H]2CC(=O)N21` [Clavulanic] + Oc1cc(Cl)ccc1Oc1ccc(Cl)cc1Cl [Triclosan], the Bliss interaction score in assay [1] is 0.0445; in assay [2], 0.081; in assay [3], -0.0656; in assay [4], 0.0658.

On to `CNC(C)C1CCC(N)C(OC2C(N)CC(N)C(OC3OCC(C)(O)C(NC)C3O)C2O)O1` (centres undefined) [Gentamicin] + CC[C@H]1OC(=O)[C@H](C)C(=O)[C@H](C)[C@@H](O[C@@H]2O[C@H](C)C[C@H](N(C)C)[C@H]2O)[C@](C)(OC)C[C@@H](C)C(=O)[C@H](C)[C@H]2N(CCCCn3cnc(-c4cccnc4)c3)C(=O)O[C@]12C [Telithromycin], for which the Bliss interaction score in assay [1] (main component drawn) amounted to 0.0542; in assay [2] (main component drawn), 0.0492; in assay [3] (main component drawn), 0.0544; in assay [4] (main component drawn) it was 0.0903.

Regarding `CC[C@H]1OC(=O)[C@H](C)C(=O)[C@H](C)[C@@H](O[C@@H]2O[C@H](C)C[C@H](N(C)C)[C@H]2O)[C@](C)(OC)C[C@@H](C)C(=O)[C@H](C)[C@H]2N(CCCCn3cnc(-c4cccnc4)c3)C(=O)O[C@]12C` [Telithromycin] + CC1=C\[C@@H](O)CC(=O)Cc2nc(co2)C(=O)N2CCC=C2C(=O)O[C@H](C(C)C)[C@H](C)/C=C/C(=O)NC\C=C\1 [Virginiamycin M1], the Bliss interaction score in assay [1] is -0.037; in assay [2], -0.0529; in assay [3], -0.0314; in assay [4], -0.0239.

With `CC[C@H]1OC(=O)[C@H](C)[C@@H](O[C@H]2C[C@@](C)(OC)[C@@H](O)[C@H](C)O2)[C@H](C)[C@@H](O[C@@H]2O[C@H](C)C[C@H](N(C)C)[C@H]2O)[C@](C)(O)C[C@@H](C)CN(C)[C@H](C)[C@@H](O)[C@]1(C)O` [Azithromycin] + C1=CC(=CC(=C1)Cl)NN=C(C#N)C#N [CCCP], the Bliss interaction score in assay [1] is -0.0621; in assay [2] it was -0.0316; in assay [3] it was -0.0482; in assay [4], -0.104.

With `CC[C@H]1OC(=O)[C@H](C)[C@@H](O[C@H]2C[C@@](C)(OC)[C@@H](O)[C@H](C)O2)[C@H](C)[C@@H](O[C@@H]2O[C@H](C)C[C@H](N(C)C)[C@H]2O)[C@](C)(O)C[C@@H](C)CN(C)[C@H](C)[C@@H](O)[C@]1(C)O` [Azithromycin] + CN(C)[C@@H]1C(O)=C(C(N)=O)C(=O)[C@@]2(O)C(O)=C3C(=O)c4c(O)ccc(Cl)c4[C@@](C)(O)[C@H]3C[C@@H]12 [Clortetracycline], the Bliss interaction score is -0.084 in assay [1], -0.243 in assay [2], -0.192 in assay [3] and -0.344 in assay [4].
